Reference: patent publication US8008456B2, “Compositions containing, methods involving, and uses of non-natural amino acids and polypeptides” (Ambrx, Inc., priority 2004, dated 2011)
Read-outs that look alike come from different tables or passages of the source. Blank lines part the entries; values can stand above or below the compound they belong to.

Legend:
[1] = Intracellular concentration of non-natural amino acids (cellular uptake); type: in vitro ADME
Source text: Non-natural amino acid uptake by a eukaryotic cell is one issue that is typically considered when designing and selecting non-natural amino acids, including but not limited to, for incorporation into a protein. […] Natural amino acids are taken up into the eukaryotic cell via a collection of protein-based transport systems. A rapid screen can be done which assesses which non-natural amino acids, if any, are taken up by cells (examples 15 & 16 herein illustrate non-limiting examples of tests which can be done on non-natural amino acids). See, e.g., the toxicity assays in, e.g., the U.S. Patent Publication No. 2004/198637 entitled “Protein Arrays,” which is herein incorporated by reference in its entirety, and Liu, D. R. & Schultz, P. G. (1999) Progress toward the evolution of an organism with an expanded genetic code. PNAS United States 96:4780-4785. Although uptake is easily analyzed with various assays, an alternative to designing non-natural amino acids that are amenable to cellular uptake pathways is to provide biosynthetic pathways to create amino acids in vivo.
This example provides results of four tests that were conducted on certain illustrative non-natural amino acids as an aid for predicting their properties for incorporation into non-natural amino acid polypeptides.

[2] = Pharmacokinetic studies, single s.c. dose in rats, plasma growth hormone ELISA; type: in vivo; settings: single-dose 1 mg/kg bolus s.c., normal male Sprague-Dawley rats; average (+/- standard deviation)
Experimental: Pharmacokinetic properties of PEG-modified growth hormone compounds were compared to each other and to nonPEGylated growth hormone in male Sprague-Dawley rats (261-425 g) obtained from Charles River Laboratories. Catheters were surgically installed into the carotid artery for blood collection. Following successful catheter installation, animals were assigned to treatment groups (three to six per group) prior to dosing. Animals were dosed subcutaneously with 1 mg/kg of compound in a dose volume of 0.41-0.55 ml/kg. Blood samples were collected at various time points via the indwelling catheter and into EDTA-coated microfuge tubes. Plasma was collected after centrifugation, and stored at −80° C. until analysis. Compound concentrations were measured using antibody sandwich growth hormone ELISA kits from either BioSource International (Camarillo, Calif.) or Diagnostic Systems Laboratories (Webster, Tex.). Concentrations were calculated using standards corresponding to the analog that was dosed. Pharmacokinetic parameters were estimated using the modeling program WinNonlin (Pharsight, version 4.1). Noncompartmental analysis with linear-up/log-down trapezoidal integration was used, and concentration data was uniformly weighted.
Plasma concentrations were obtained at regular intervals following a single subcutaneous dose in rats. […] Plasma samples were taken over the regular time intervals and assayed for injected compound as described. […] Concentration vs time curves were evaluated by noncompartmental analysis (Pharsight, version 4.1). Values shown are averages (+/−standard deviation). Cmax: maximum concentration; terminal t1/2: terminal half-life; AUC0->inf: area under the concentration-time curve extrapolated to infinity; MRT: mean residence time; Cl/f: apparent total, plasma clearance; Vz/f: apparent volume of distribution during terminal phase.

[3] = pH stability tests; type: physicochemical
Experimental: This example provides the results of pH stability tests that were conducted on certain illustrative non-natural amino acids as an aid for predicting their properties for incorporation into non-natural amino acid polypeptides.

Compound: 30KPEG-pAF131(his)hGH: "His-tagged hGH polypeptide comprising non-natural amino acid p-acetyl-phenylalanine covalently linked to 30 kDa PEG at each of six different positions"
AUC0->inf [2]: 6,978 (±2,573) ng × hr/ml
Cl/f [2]: 161 (±61) ml/hr/kg
Cmax [2]: 497 (±187) ng/ml
MRT [2]: 14.28 (±0.92) h
Terminal t1/2 [2]: 4.41 (±0.27) h

Compound: 30KPEG-pAF134(his)hGH: "His-tagged hGH polypeptide comprising non-natural amino acid p-acetyl-phenylalanine covalently linked to 30 kDa PEG at each of six different positions"
AUC0->inf [2]: 7,304 (±2,494) ng × hr/ml
Cl/f [2]: 151 (±63) ml/hr/kg
Cmax [2]: 566 (±204) ng/ml
MRT [2]: 12.15 (±1.03) h
Terminal t1/2 [2]: 4.36 (±0.33) h

Compound: 30KPEG-pAF143(his)hGH: "His-tagged hGH polypeptide comprising non-natural amino acid p-acetyl-phenylalanine covalently linked to 30 kDa PEG at each of six different positions"
AUC0->inf [2]: 17,494 (±3,654) ng × hr/ml
Cl/f [2]: 59 (±11) ml/hr/kg
Cmax [2]: 803 (±149) ng/ml
MRT [2]: 18.83 (±1.59) h
Terminal t1/2 [2]: 6.02 (±1.43) h

Compound: 30KPEG-pAF145(his)hGH: "His-tagged hGH polypeptide comprising non-natural amino acid p-acetyl-phenylalanine covalently linked to 30 kDa PEG at each of six different positions"
AUC0->inf [2]: 13,162 (±6,726) ng × hr/ml
Cl/f [2]: 88 (±29) ml/hr/kg
Cmax [2]: 634 (±256) ng/ml
MRT [2]: 17.82 (±0.56) h
Terminal t1/2 [2]: 5.87 (±0.09) h

Now from value to compound:

Intracellular Concentration [1]: 628 µM
Intracellular Concentration ([1]; remark in words): little reduced
Compound: CC(=O)CNC(=O)c1ccc(C[C@H](N)C(=O)O)cc1

Intracellular Concentration [1]: 279 µM
Compound: CC(=O)C(F)(F)c1ccc(C[C@H](N)C(=O)O)cc1

pH stability ([3]; pH 4.0, 1 hour): <1%
pH stability ([3]; pH 4.0, 1 day): <1%
pH stability ([3]; pH 4.0, 2 days): <1%
pH stability ([3]; pH 4.0, 3 days): <1%
pH stability ([3]; pH 4.0, 4 days): <1%
pH stability ([3]; pH 4.0, 5 days): <1%
pH stability ([3]; pH 4.0, 6 days): 2%
pH stability ([3]; pH 4.0, 7 days): 2%
pH stability ([3]; pH 4.0, 10 days): 3%
pH stability ([3]; pH 5.0, 1 hour): <1%
pH stability ([3]; pH 5.0, 1 day): <1%
pH stability ([3]; pH 5.0, 2 days): <1%
pH stability ([3]; pH 5.0, 3 days): <1%
pH stability ([3]; pH 5.0, 4 days): <1%
pH stability ([3]; pH 5.0, 5 days): <1%
pH stability ([3]; pH 5.0, 6 days): <1%
pH stability ([3]; pH 5.0, 7 days): <1%
pH stability ([3]; pH 5.0, 10 days): <1%
pH stability ([3]; pH 6.5, 1 hour): <1%
pH stability ([3]; pH 6.5, 1 day): <1%
pH stability ([3]; pH 6.5, 2 days): <1%
pH stability ([3]; pH 6.5, 3 days): <1%
pH stability ([3]; pH 6.5, 4 days): <1%
pH stability ([3]; pH 6.5, 5 days): <1%
pH stability ([3]; pH 6.5, 6 days): <1%
pH stability ([3]; pH 6.5, 7 days): <1%
pH stability ([3]; pH 6.5, 10 days): <1%
pH stability ([3]; pH 7.4, 1 hour): <1%
pH stability ([3]; pH 7.4, 1 day): <1%
pH stability ([3]; pH 7.4, 2 days): <1%
pH stability ([3]; pH 7.4, 3 days): <1%
pH stability ([3]; pH 7.4, 4 days): <1%
pH stability ([3]; pH 7.4, 5 days): 3%
pH stability ([3]; pH 7.4, 6 days): 4%
pH stability ([3]; pH 7.4, 7 days): 7%
pH stability ([3]; pH 7.4, 10 days): 11%
pH stability ([3]; pH 8.0, 1 hour): <1%
pH stability ([3]; pH 8.0, 1 day): <1%
pH stability ([3]; pH 8.0, 2 days): <1%
pH stability ([3]; pH 8.0, 3 days): <1%
pH stability ([3]; pH 8.0, 4 days): <1%
pH stability ([3]; pH 8.0, 5 days): <1%
pH stability ([3]; pH 8.0, 6 days): <1%
pH stability ([3]; pH 8.0, 7 days): <1%
pH stability ([3]; pH 8.0, 10 days): <1%
Compound: COCCOCNCCO/N=C(\C)CC(=O)c1ccccc1 [drawing 135]

pH stability ([3]; pH 4.0, 1 hour): 4.0%
pH stability ([3]; pH 4.0, 1 day): <1%
pH stability ([3]; pH 4.0, 2 days): <1%
pH stability ([3]; pH 4.0, 3 days): <1%
pH stability ([3]; pH 4.0, 4 days): <1%
pH stability ([3]; pH 4.0, 5 days): <1%
pH stability ([3]; pH 4.0, 6 days): <1%
pH stability ([3]; pH 4.0, 7 days): <1%
pH stability ([3]; pH 4.0, 10 days): <1%
pH stability ([3]; pH 5.0, 1 hour): 5.0%
pH stability ([3]; pH 5.0, 1 day): <1%
pH stability ([3]; pH 5.0, 2 days): <1%
pH stability ([3]; pH 5.0, 3 days): <1%
pH stability ([3]; pH 5.0, 4 days): <1%
pH stability ([3]; pH 5.0, 5 days): <1%
pH stability ([3]; pH 5.0, 6 days): <1%
pH stability ([3]; pH 5.0, 7 days): <1%
pH stability ([3]; pH 5.0, 10 days): <1%
pH stability ([3]; pH 6.5, 1 hour): 6.5%
pH stability ([3]; pH 6.5, 1 day): <1%
pH stability ([3]; pH 6.5, 2 days): <1%
pH stability ([3]; pH 6.5, 3 days): <1%
pH stability ([3]; pH 6.5, 4 days): <1%
pH stability ([3]; pH 6.5, 5 days): <1%
pH stability ([3]; pH 6.5, 6 days): <1%
pH stability ([3]; pH 6.5, 7 days): <1%
pH stability ([3]; pH 6.5, 10 days): <1%
pH stability ([3]; pH 7.4, 1 hour): 7.4%
pH stability ([3]; pH 7.4, 1 day): <1%
pH stability ([3]; pH 7.4, 2 days): <1%
pH stability ([3]; pH 7.4, 3 days): <1%
pH stability ([3]; pH 7.4, 4 days): <1%
pH stability ([3]; pH 7.4, 5 days): <1%
pH stability ([3]; pH 7.4, 6 days): <1%
pH stability ([3]; pH 7.4, 7 days): <1%
pH stability ([3]; pH 7.4, 10 days): <1%
pH stability ([3]; pH 8.0, 1 hour): 8.0%
pH stability ([3]; pH 8.0, 1 day): <1%
pH stability ([3]; pH 8.0, 2 days): <1%
pH stability ([3]; pH 8.0, 3 days): <1%
pH stability ([3]; pH 8.0, 4 days): <1%
pH stability ([3]; pH 8.0, 5 days): <1%
pH stability ([3]; pH 8.0, 6 days): <1%
pH stability ([3]; pH 8.0, 7 days): <1%
pH stability ([3]; pH 8.0, 10 days): <1%
Compound: COCCOC(=O)NCCO/N=C(\C)C(=O)Nc1ccccc1 [drawing 138]

pH stability ([3]; pH 4.0, 1 hour): 4.0%
pH stability ([3]; pH 4.0, 1 day): <1%
pH stability ([3]; pH 4.0, 2 days): <1%
pH stability ([3]; pH 4.0, 3 days): <1%
pH stability ([3]; pH 4.0, 4 days): <1%
pH stability ([3]; pH 4.0, 5 days): <1%
pH stability ([3]; pH 4.0, 6 days): <1%
pH stability ([3]; pH 4.0, 7 days): <1%
pH stability ([3]; pH 4.0, 10 days): <1%
pH stability ([3]; pH 5.0, 1 hour): 5.0%
pH stability ([3]; pH 5.0, 1 day): <1%
pH stability ([3]; pH 5.0, 2 days): <1%
pH stability ([3]; pH 5.0, 3 days): <1%
pH stability ([3]; pH 5.0, 4 days): <1%
pH stability ([3]; pH 5.0, 5 days): <1%
pH stability ([3]; pH 5.0, 6 days): <1%
pH stability ([3]; pH 5.0, 7 days): <1%
pH stability ([3]; pH 5.0, 10 days): <1%
pH stability ([3]; pH 6.5, 1 hour): 6.5%
pH stability ([3]; pH 6.5, 1 day): <1%
pH stability ([3]; pH 6.5, 2 days): <1%
pH stability ([3]; pH 6.5, 3 days): <1%
pH stability ([3]; pH 6.5, 4 days): <1%
pH stability ([3]; pH 6.5, 5 days): <1%
pH stability ([3]; pH 6.5, 6 days): <1%
pH stability ([3]; pH 6.5, 7 days): <1%
pH stability ([3]; pH 6.5, 10 days): <1%
pH stability ([3]; pH 7.4, 1 hour): 7.4%
pH stability ([3]; pH 7.4, 1 day): <1%
pH stability ([3]; pH 7.4, 2 days): <1%
pH stability ([3]; pH 7.4, 3 days): <1%
pH stability ([3]; pH 7.4, 4 days): <1%
pH stability ([3]; pH 7.4, 5 days): <1%
pH stability ([3]; pH 7.4, 6 days): <1%
pH stability ([3]; pH 7.4, 7 days): <1%
pH stability ([3]; pH 7.4, 10 days): <1%
pH stability ([3]; pH 8.0, 1 hour): 8.0%
pH stability ([3]; pH 8.0, 1 day): <1%
pH stability ([3]; pH 8.0, 2 days): <1%
pH stability ([3]; pH 8.0, 3 days): <1%
pH stability ([3]; pH 8.0, 4 days): <1%
pH stability ([3]; pH 8.0, 5 days): <1%
pH stability ([3]; pH 8.0, 6 days): <1%
pH stability ([3]; pH 8.0, 7 days): <1%
pH stability ([3]; pH 8.0, 10 days): <1%
Compound: COCCOCNCCO/N=C(\C)CC(=O)c1ccccc1 [drawing 139]
